According to patent publication US5317021A, “3-mercapto-glutamic acid derivatives” (ONO Pharmaceutical Co., Ltd., priority 1988, dated 1994):
pIC50: −log10 of the molar value. Counter-ions that a name gives are not always drawn.

Columns and labels:
[1] = tested on: bradykinin-induced biting-like response; experiment: Inhibitory effect on bradykinin-induced biting-like response; assay type: in vivo, male Spraque-Dawley rats; conditions: for Number of rats which did not show the biting-like response, 30 minutes after p.o. / Number of rats which did not show the biting-like response, 60 minutes after p.o. / Number of rats which did not show the biting-like response, 90 minutes after p.o. / Number of rats which did not show the biting-like response, 120 minutes after p.o.: 100 mg/kg p.o., number of rats 8; for Number of rats which did not show the biting-like response, 10 minutes after i.p. / Number of rats which did not show the biting-like response, 40 minutes after i.p. / Number of rats which did not show the biting-like response, 70 minutes after i.p. / Number of rats which did not show the biting-like response, 100 minutes after i.p.: 10 mg/kg i.p., number of rats 5 (Example 1), 8 (Example 12(5))
Method: The experiment was carried out according to the method as described in Journal of Pharmacological Methods, Z, 271 (1982). That is, male Spraque-Dawley rats (weighing 200~300 g) were used. Implantation of the bradykinin (0.63~1.25 μg in 0.5~1.0 μl of distilled water) - filled cannula onto the tooth pulp and the fixation of it on the lower incisor surfaces were carried out under ethyl ether anesthesia. A micro-application of bradykinin onto the tooth pulp produced biting-like response and some other aversive behaviors such as jumping, struggling, rubbing, scratching, escape, head-jerk and body-jerk within 1 minute.
The test compounds suspended in 0.5% carboxymethyl cellulose solution were administered either intraperitoneally or orally. After regular intervals bradykinin was administered.

[2] = acute toxicity (LD50), intraperitoneal injection in mice; conditions: mouse, in vivo, ip
[3] = target: T1, enkephalinase (Mus musculus, UniProt Q61391); experiment: Inhibitory effect on enkephalinase; assay type: biochemical, ddY male mice; conditions: substrate Suc-Ala-Ala-Phe-AMC 10^-4 M, 37° C., 60 minutes, mouse striata enzyme
T1 construct: striata obtained from ddY male mice; from tissue; host or cells: striata of ddY male mice (washed 20000 g membrane pellet, not purified)
T1 sequence (Q61391 1-750): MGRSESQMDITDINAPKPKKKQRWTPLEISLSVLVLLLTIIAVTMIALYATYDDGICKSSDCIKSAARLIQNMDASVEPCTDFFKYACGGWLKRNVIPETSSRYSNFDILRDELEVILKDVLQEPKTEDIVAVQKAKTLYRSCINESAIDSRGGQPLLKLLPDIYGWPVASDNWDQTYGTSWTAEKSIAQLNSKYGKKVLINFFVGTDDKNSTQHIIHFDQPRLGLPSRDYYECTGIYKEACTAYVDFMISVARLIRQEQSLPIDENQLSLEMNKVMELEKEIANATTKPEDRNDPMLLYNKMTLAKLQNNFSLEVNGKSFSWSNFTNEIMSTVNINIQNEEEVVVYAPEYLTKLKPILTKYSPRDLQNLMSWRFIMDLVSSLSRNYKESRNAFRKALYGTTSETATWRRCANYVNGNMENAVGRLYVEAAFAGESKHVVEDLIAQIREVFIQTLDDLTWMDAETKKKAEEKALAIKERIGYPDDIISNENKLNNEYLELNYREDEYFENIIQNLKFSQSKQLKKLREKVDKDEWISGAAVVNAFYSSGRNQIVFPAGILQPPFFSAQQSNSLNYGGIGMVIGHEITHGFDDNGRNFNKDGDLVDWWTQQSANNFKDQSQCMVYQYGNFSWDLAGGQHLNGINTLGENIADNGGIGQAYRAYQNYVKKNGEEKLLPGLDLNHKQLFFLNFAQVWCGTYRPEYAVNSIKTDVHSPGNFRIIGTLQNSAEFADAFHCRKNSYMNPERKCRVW
Method: That is, to striata obtained from ddY male mice (weighing 28~30 g), Tris hydrochloric acid buffer solution (referred to "Tris buffer" hereafter) was added. The mixture was homogenised and centrifuged (1000 g×5 minites). The supernatant obtained was further centrifuged (20000 g×1 minutes). The resulting pellet was washed with cold Tris buffer and resuspended in a fresh Tris buffer to use as enzyme source of enkephalinase.
Incubation at 37° C. for 60 minutes was started by adding thereto […] of enzyme solution (×30 dilution of the above enzyme source) and 50 μl of a substrate solution containing succinyl-alanyl-alanyl-phenylalanyl (7-amido-4-methyl)coumarin (i.e. Suc-Ala-Ala-Phe-AMC, final concentration: 10^-4 M) dissolved in 50 mM HEPES/NaOH buffer (pH 7.4). The reaction was stopped by the addition of thiorphan (10^-6 M) and by heating the samples at 95° C. for 15 minutes. […] Blanks values were obtained by the same procedure as above described by using thiorphan (10^-6 M) instead of the test compound.

| SMILES | pIC50 [3] | further results |
| --- | --- | --- |
| O=C(O)CC[C@H](NC(=O)[C@@H](CSC1OC(=O)c2ccccc21)Cc1ccccc1)C(=O)Nc1ccccc1 (stereo partly drawn) [Example 16, N-[3-(phthalid-3yl)thio-2S-benzylpropionyl]-α-anilino-L-glutamic acid] | – | Number of rats which did not show the biting-like response, 30 minutes after p.o. [1]: 3; Number of rats which did not show the biting-like response, 60 minutes after p.o. [1]: 6; Number of rats which did not show the biting-like response, 90 minutes after p.o. [1]: 2; Number of rats which did not show the biting-like response, 120 minutes after p.o. [1]: 0; LD50 [2]: 500 to 1000 mg/kg |
| O=C(O)CC[C@H](NC(=O)C(CS)Cc1ccccc1)C(=O)Nc1ccccc1 (stereo partly drawn) [Example 1, N-(3-mercapto-2RS-benzylpropionyl)-α-anilino-L-glutamic acid] | 7.68 | Number of rats which did not show the biting-like response, 10 minutes after i.p. [1]: 4; Number of rats which did not show the biting-like response, 40 minutes after i.p. [1]: 4; Number of rats which did not show the biting-like response, 70 minutes after i.p. [1]: 3; Number of rats which did not show the biting-like response, 100 minutes after i.p. [1]: 1 |
| O=C(CC[C@H](NC(=O)C(CS)Cc1ccccc1)C(=O)O)Nc1ccccc1 (stereo partly drawn) [Example 11, N-(3-mercapto-2RS-benzylpropionyl)-γ-anilino-L-glutamic acid α-sodium salt] | 7.17 | – |
| O=C(O)CC[C@H](NC(=O)C(CS)Cc1ccccc1)C(=O)Nc1nc2ccccc2s1 (stereo partly drawn) [2(10), N-(3-mercapto-2RS-benzylpropionyl)-L-glutamic acid α-(2-benzthiazolyl) amide] | 7.36 | – |
| COc1ccc(CC(CS)C(=O)N[C@@H](CCC(=O)O)C(=O)Nc2ccccc2)cc1 (stereo partly drawn) [1(2), N-[3-mercapto-2RS-(4-methoxybenzyl)-propionyl]-α-anilino-L-glutamic acid] | 7.29 | – |
| CN(C)c1ccc(NC(=O)C[C@H](NC(=O)C(CS)Cc2ccccc2)C(=O)O)cc1 (stereo partly drawn) [12(7), N-(3-mercapto-2RS-benzylpropionyl)-β-[4-(N,N-dimethylamino)anilino]-L-aspartic acid] | 7.62 | – |
| O=C(O)CC[C@H](NC(=O)C(CS)Cc1ccccc1)C(=O)Nc1ccc(Cl)cn1 (stereo partly drawn) [3(4), N-(3-mercapto-2RS-benzylpropionyl)-L-glutamic acid α-(5-chloropyridin-2-yl)amide] | 7.46 | – |
| O=C(C[C@H](NC(=O)C(CS)Cc1ccccc1)C(=O)O)Nc1ccc(I)cc1 (stereo partly drawn) [12(5), N-(3-mercapto-2RS-benzylpropionyl)-β-(4-iodoanilino)-L-aspartic acid] | 8.55 | Number of rats which did not show the biting-like response, 10 minutes after i.p. [1]: 4; Number of rats which did not show the biting-like response, 40 minutes after i.p. [1]: 2; Number of rats which did not show the biting-like response, 70 minutes after i.p. [1]: 1; Number of rats which did not show the biting-like response, 100 minutes after i.p. [1]: 0 |
| O=C(C[C@H](NC(=O)C(CS)Cc1ccccc1)C(=O)O)Nc1ccccc1 (stereo partly drawn) [Example 12, N-(3-mercapto-2RS-benzylpropionyl)-β-anilino-L-aspartic acid and the corresponding α-sodium salt] | 7.89 | – |
| COc1ccc(NC(=O)[C@H](CC(=O)O)NC(=O)C(CS)Cc2ccccc2)cc1 (single isomer, unassigned) [8(4), N-(3-mercapto-2RS-benzylpropionyl)-α-(4-methoxyanilino)-L-aspartic acid] | 7.30 | – |
| O=C(O)CC[C@H](NC(=O)[C@@H](CSC(=O)C(c1ccccc1)c1ccccc1)Cc1ccccc1)C(=O)Nc1ccccc1 [13(5), N-(3-diphenylacetylthio-2S-benzylpropionyl)-α-anilino-L-glutamic acid] | – | Number of rats which did not show the biting-like response, 30 minutes after p.o. [1]: 1; Number of rats which did not show the biting-like response, 60 minutes after p.o. [1]: 7; Number of rats which did not show the biting-like response, 90 minutes after p.o. [1]: 1; Number of rats which did not show the biting-like response, 120 minutes after p.o. [1]: 1 |
| O=C(O)CC[C@H](NC(=O)C(CS)Cc1ccccc1)C(=O)Nc1cccc2ccccc12 (stereo partly drawn) [2(7), N-(3-mercapto-2RS-benzylpropionyl)-L-glutamic acid α-(1-naphthyl)amide] | 6.46 | – |
| Cc1ccc(CC(CS)C(=O)N[C@@H](CCC(=O)O)C(=O)Nc2ccccc2)cc1 (stereo partly drawn) [1(3), N-[3-mercapto-2RS-(4-methylbenzyl)-propionyl]-α-anilino-L-glutamic acid] | 7.15 | – |
| COC(=O)C[C@H](NC(=O)C(CS)Cc1ccccc1)C(=O)Nc1ccc2c(c1)C(c1ccccc1)=NCCN2C (stereo partly drawn) [Example 4, N-(3-mercapto-2RS-benzylpropionyl)-L-aspartic acid α-(2,3-dihydro-1-methyl-5-phenyl-1H-1,4-benzodiazepin-7yl)amide β-methyl ester] | 6.82 | – |
| O=C(C[C@H](NC(=O)C(CS)Cc1ccccc1)C(=O)O)Nc1ccc(C(F)(F)F)cc1 (stereo partly drawn) [12(8), N-(3-mercapto-2RS-benzylpropionyl)-β-(4-trifluoromethylanilino)-L-aspartic acid] | 7.68 | – |
| O=C(O)CC[C@H](NC(=O)C(CS)Cc1ccccc1)C(=O)Nc1cnccn1 (stereo partly drawn) [3(9), N-(3-mercapto-2RS-benzylpropionyl)-L-glutamic acid α-(pyrazin-2-yl) amide] | 6.72 | – |
| NS(=O)(=O)c1ccc(NC(=O)[C@H](CCC(=O)O)NC(=O)C(CS)Cc2ccccc2)cc1 (stereo partly drawn) [3(8), N-(3-mercapto-2RS-benzylpropionyl)-α-(4-sulfamoylanilino)-L-glutamic acid] | 7.64 | – |
| O=C(O)CC[C@H](NC(=O)C(CS)CC1CCCCC1)C(=O)Nc1ccccc1 (stereo partly drawn) [1(1), N-(3-mercapto-2RS-cyclohexylmethyl-propionyl)-α-anilino-L-glutamic acid] | 6.40 | – |
| O=C(O)CC[C@H](NC(=O)C(CS)Cc1ccccc1)C(=O)Nc1ccc(C(=O)O)cc1 (stereo partly drawn) [3(2), N-(3-mercapto-2RS-benzylpropionyl)-α-(4-carboxyanilino)-L-glutamic acid] | 8.44 | – |
